Source: patent US20080039438A1, “1B-Methylcarbapenem Derivative and Process for the Preparation Thereof” (Korea Institute of Science and Technology, priority 2004, published 2008)

How the values were obtained:
[1] = test system: Staphylococcus aureus SG511; assay: MIC against standard strains (agar dilution); type: cell-based; settings: standard strain Staphylococcus aureus SG511, 37° C., 18 to 20 hours, read-out: Minimum Inhibitory Concentration (MIC)
[2] = test system: Staphylococcus aureus 285; assay: MIC against standard strains (agar dilution); type: cell-based; settings: standard strain Staphylococcus aureus 285, 37° C., 18 to 20 hours, read-out: Minimum Inhibitory Concentration (MIC)
Escherichia coli DC 2 = assay: MIC against standard strains (agar dilution); type: cell-based; settings: DC2; standard strain Escherichia coli DC 2; agar, 37° C., 18 to 20 hours; read-out: Minimum Inhibitory Concentration (MIC)
Escherichia coli 1507E = assay: MIC against standard strains (agar dilution); type: cell-based; settings: standard strain Escherichia coli 1507E, 37° C., 18 to 20 hours, read-out: Minimum Inhibitory Concentration (MIC)
[3] = test system: Pseudomonas aeruginosa 1771; assay: MIC against standard strains (agar dilution); type: cell-based; settings: standard strain Pseudomonas aeruginosa 1771, 37° C., 18 to 20 hours, read-out: Minimum Inhibitory Concentration (MIC)
[4] = test system: Klebsiella aerogenes 1522E; assay: MIC against standard strains (agar dilution); type: cell-based; settings: standard strain Klebsiella aerogenes 1522E, 37° C., 18 to 20 hours, read-out: Minimum Inhibitory Concentration (MIC)
[5] = test system: Enterobacter cloacae 1321E; assay: MIC against standard strains (agar dilution); type: cell-based; settings: standard strain Enterobacter cloacae 1321E, 37° C., 18 to 20 hours, read-out: Minimum Inhibitory Concentration (MIC)
Haemophilus influenzae = assay: MIC against clinically isolated aerobic Gram-negative strains; type: cell-based; settings: 24 strains
Klebsiella oxytoca = assay: as above; type: cell-based; settings: 15 strains
Enterobacter aerogenes = assay: as above; type: cell-based; settings: 14 strains
Proteus vulgaris = assay: as above; type: cell-based; settings: 15 strains
Providentia sp. = assay: as above; type: cell-based; settings: 13 strains
Acinetobacter baumannii = assay: as above; type: cell-based; settings: 30 strains
Peptostreptococcus spp. = assay: MIC against clinically isolated anaerobic Gram-positive strains; type: cell-based; settings: 27 strains
Clostridium perfringens = assay: microbe, parasite or virus in culture; type: cell-based; settings: Clostridium perfringens
Clostridium difficile = assay: MIC against clinically isolated anaerobic Gram-positive strains; type: cell-based; settings: 15 strains
Experimental: The in vitro antibacterial activities of the sodium 3-carboxylate compound of the present invention prepared in the above Example were measured against standard strains (Table 1), clinically isolated aerobic Gram-positive strains (Table 2), clinically isolated aerobic Gram-negative strains (Table 3), clinically isolated anaerobic Gram-positive strains (Table 4) and clinically isolated anaerobic Gram-negative strains (Table 5) using Gram-positive bacteria such as Streptococcus and Staphylococcus, Gram-negative bacteria such as Escherichia, Salmonella, Krebsiella and Enterobacter. Imipenem (IPM), meropenem (MPM) and ertapenem (EPM) were used as control groups.
The results are shown in Tables 1 to 5, and MIC50 and MIC90 represent the concentrations at which the test strain's growth was inhibited to the extents of 50% and 90%, respectively.

[6] = test system: Bacteroides thetaiotaomicron; assay: MIC against clinically isolated anaerobic Gram-negative strains; type: cell-based; settings: clinically isolated anaerobic Bacteroides thetaiotaomicron, 15 strains
DHP-I = target: T1, DHP-I (Sus scrofa, UniProt P22412); type: in vitro ADME, porcine; settings: pig, 50 μg/ml, pH 7
T1 construct: DHP-I used in the experiment was isolated from the kidney cortex of a porcine; from tissue; host or cells: porcine kidney cortex
T1 sequence (P22412 17-384): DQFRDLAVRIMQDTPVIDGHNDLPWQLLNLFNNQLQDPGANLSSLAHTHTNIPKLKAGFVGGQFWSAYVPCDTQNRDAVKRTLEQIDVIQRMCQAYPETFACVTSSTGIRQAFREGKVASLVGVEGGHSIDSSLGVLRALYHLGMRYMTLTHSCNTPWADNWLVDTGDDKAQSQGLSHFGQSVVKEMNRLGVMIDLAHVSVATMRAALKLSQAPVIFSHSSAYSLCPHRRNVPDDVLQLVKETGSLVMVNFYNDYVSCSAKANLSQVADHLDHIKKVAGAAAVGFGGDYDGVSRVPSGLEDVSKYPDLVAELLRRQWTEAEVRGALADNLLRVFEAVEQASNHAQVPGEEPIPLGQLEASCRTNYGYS
Experimental: To investigate the stability of sodium 3-carboxylate compound of formula (I) prepared in Example to DHP-I secreted in the kidney, the following experiment was performed.
DHP-I used in the experiment was isolated from the kidney cortex of a porcine. The enzyme quantity at which the concentration of imipenem was reduced by one half by hydrolysis at 30° C. for 30 minutes was defined as one unit. 50 μg/ml of a test drug and a unit of DHP-I were added to 1 ml of MOPS buffer (pH 7.0), the mixture was maintained at 30° C. and OD values at 299 nm were measured after 0.5, 1, 2, 4 hours.

[7] = Pharmacokinetics test in rats; type: in vivo, Sprague-Dawley rats
Experimental: (§1) The pharmacokinetic behavior of the sodium 3-carboxylate compound of Example was determined as follows. Male Sprague-Dawley rats (weighing 250 g, 14-15 weeks old, 5 rats/group) and Beagle dogs (weighing 10 kg, 3 dogs/group) were maintained by feeding conventional hard food at identical conditions for more than 7 days. The test animals were fasted except water for more than 24 hours before tested. […] 500 μl of each blood sample was centrifuged at 12,000 rpm for 30 seconds, the supernatant was filtered through a 0.22 μm filter, and analyzed by HPLC/UV, and the result was listed in Table 7.

[8] = Pharmacokinetics test in dogs; type: in vivo, Beagle dogs; settings: Beagle, supernatant of centrifuged blood; dog, intravenous, 5 mg/kg
Experimental: as §1

[9] = male, Sprague-Dawley, supernatant of centrifuged blood, rat, intravenous, 20 mg/kg

**Q.** Which MIC [1] does the source give for `C[C@@H](O)[C@H]1C(=O)N2C(C(=O)O)=C(S[C@@H]3CN[C@H](/C=C/c4cc(C(=O)O)no4)C3)[C@H](C)[C@H]12` [Example, (1R,5S,6S,8R,3′S,5′S)-2-{5′-[(E)-2-(3-carboxylic acid or sodium carboxylate-5-isoxazolo)ethenyl]pyrrolidin-3′-ylthio}-6-(1-hydroxyethyl)-1-methylcarbapen-2-em-3-carboxylic acid] here?
**A.** 0.098 µg/mL

**Q.** What about the MIC [2] of the same molecule?
**A.** 0.195 µg/mL

**Q.** And the MIC (Escherichia coli DC 2)?
**A.** 0.025 µg/mL

**Q.** And the MIC (Escherichia coli 1507E)?
**A.** 0.025 µg/mL

**Q.** And the MIC [3]?
**A.** 0.391 µg/mL

**Q.** What about the MIC [4] of the same molecule?
**A.** 0.049 µg/mL

**Q.** And the MIC [5]?
**A.** 0.025 µg/mL

**Q.** And the MIC50 (Haemophilus influenzae)?
**A.** 0.25 µg/mL

**Q.** And the MIC90 (Haemophilus influenzae)?
**A.** 4 µg/mL

**Q.** What about the “MIC Range” value (Haemophilus influenzae) of the same molecule?
**A.** 0.25 to 8 µg/mL

**Q.** And the MIC50 (Klebsiella oxytoca)?
**A.** 0.03 µg/mL

**Q.** And the MIC90 (Klebsiella oxytoca)?
**A.** 0.03 µg/mL

**Q.** What about the “MIC Range” value (Klebsiella oxytoca) of the same molecule?
**A.** 0.015 to 0.25 µg/mL

**Q.** What about the “MIC Range” value (Enterobacter aerogenes) of the same molecule?
**A.** 0.015 to 0.12 µg/mL

**Q.** And the MIC50 (Enterobacter aerogenes; Klebsiella aerogenes)?
**A.** 0.06 µg/mL

**Q.** What about the MIC90 (Enterobacter aerogenes; Klebsiella aerogenes) of the same molecule?
**A.** 0.25 µg/mL

**Q.** What about the MIC50 (Proteus vulgaris) of the same molecule?
**A.** 0.06 µg/mL

**Q.** What about the MIC90 (Proteus vulgaris) of the same molecule?
**A.** 0.06 µg/mL

**Q.** What about the “MIC Range” value (Proteus vulgaris) of the same molecule?
**A.** 0.03 to 0.06 µg/mL

**Q.** And the MIC50 (Providentia sp.)?
**A.** 0.06 µg/mL

**Q.** What about the MIC90 (Providentia sp.) of the same molecule?
**A.** 8 µg/mL

**Q.** What about the “MIC Range” value (Providentia sp.) of the same molecule?
**A.** 8 to 8000 ng/mL

**Q.** And the MIC50 (Acinetobacter baumannii)?
**A.** 8 µg/mL

**Q.** And the MIC90 (Acinetobacter baumannii)?
**A.** 64 µg/mL

**Q.** What about the “MIC Range” value (Acinetobacter baumannii) of the same molecule?
**A.** 2 to 128 µg/mL

**Q.** What about the MIC50 (Peptostreptococcus spp.) of the same molecule?
**A.** 0.12 µg/mL

**Q.** What about the MIC90 (Peptostreptococcus spp.) of the same molecule?
**A.** 4 µg/mL

**Q.** And the “MIC Range” value (Peptostreptococcus spp.)?
**A.** 0.06 to 4 µg/mL

**Q.** And the MIC50 (Clostridium perfringens)?
**A.** 0.06 µg/mL

**Q.** And the MIC90 (Clostridium perfringens)?
**A.** 0.12 µg/mL

**Q.** What about the “MIC Range” value (Clostridium difficile) of the same molecule?
**A.** 2 to 4 µg/mL

**Q.** And the MIC50 (Clostridium difficile; Clostridioides difficile)?
**A.** 4 µg/mL

**Q.** What about the MIC90 (Clostridium difficile; Clostridioides difficile) of the same molecule?
**A.** 4 µg/mL

**Q.** What about the “MIC Range” value [6] of the same molecule?
**A.** 0.5 to 8 µg/mL

**Q.** And the MIC50 ([6]; read-out: MIC50)?
**A.** 1 µg/mL

**Q.** What about the MIC90 ([6]; read-out: MIC90) of the same molecule?
**A.** 4 µg/mL

**Q.** And the “higher stability to DHP-I than imipenem” value (DHP-I)?
**A.** about 25 fold

**Q.** And the “higher bioavailability than meropenem” value ([7]; in rats, versus meropenem)?
**A.** about 4 fold

**Q.** And the “longer half-life than meropenem” value ([7]; in rats, versus meropenem)?
**A.** about 3 fold

**Q.** What about the clearance [7, 9] of the same molecule?
**A.** 13.3 ± 1.5 mL/min/kg

**Q.** What about the half-life [7, 9] of the same molecule?
**A.** 12.4 ± 4.1 min

**Q.** What about the AUC ([7]; male, Sprague-Dawley, supernatant of centrifuged blood, rat, intravenous, 20 mg/kg, read-out: AUC (converted)) of the same molecule?
**A.** 25300 ng·h/mL

**Q.** And the AUC [8]?
**A.** 14400 ng·h/mL

**Q.** And the half-life [8]?
**A.** 41 min
